Data reported in PubChem BioAssay AID504646 (Southern Research Specialized Biocontainment Screening …, 2011).
Values joined by “and” are separate entries in the source; they are usually repeats but may differ in a detail not shown here. Equal entries are not always repeated. Active and inactive are the calls of the source. No rule for the calls is given here. Peptide text beside a SMILES is read from it. * marks the point of attachment. Cbz = O=C(OCc1ccccc1)*

Tests used:
[1] = system: Mycobacterium tuberculosis growth in 7H9 media; assay: M. tuberculosis growth inhibition in 7H9, dose response, 7H9 media, purified and synthesized samples, set 3 (AID 504646); settings: for IC90: 90% growth inhibition concentration
[2] = as above; settings: Mycobacterium tuberculosis growth in 7H9 media; at 25 µM (top of the series)

## O=C(/C=C/c1ccccc1)N1CCN(CCN2C(=O)c3cccc4cccc(c34)C2=O)CC1
[1]
  IC50: 2.16 µM
  IC90: 4.97 µM

## CCOc1ccc(-c2cc(C)[n+](CCc3ccc(OC)c(OC)c3)c(-c3ccc(OCC)cc3)c2)cc1
[1]
  IC50: 0.6 µM
  IC90: 0.9 µM

## COC(=O)C(Nc1nc(SCC(=O)NC2CCCCC2)nc2ccccc12)c1ccccc1 (stereo not given)
[2]
  growth inhibition: -0.22% (inactive)

## Cc1ccc(C(=O)N/N=C(/CC(=O)c2cccs2)C(F)(F)F)cc1
[1]
  IC50: 1.56 µM
  IC90: 2.37 µM

## Cc1nn2c(NCc3ccccn3)cc(C(C)C)nc2c1-c1ccccc1
[1]
  IC50: 1.22 µM
  IC90: 1.73 µM

## CCC(C)Nc1ccc(NC(C)CC)cc1 (stereo not given)
[1]
  IC50: 0.61 µM
  IC90: 0.98 µM

## CC1CC(C)CN(C(=O)C2CCC(CNc3c(N4CCCCC4)c(=O)c3=O)CC2)C1 (stereo not given)
[1]
  IC50: 7.76 µM
  IC90: > 25 µM

## CCOC(=O)N1CCC(Nc2c(Nc3cccc(CC)c3)c(=O)c2=O)CC1
[2]
  growth inhibition: 17.3% (inactive)

## COc1ccc(-n2nnc3c(SCC(=O)OCc4ccccc4)ncnc32)cc1
[1]
  IC50: 1.63 µM
  IC90: > 25 µM

## CCOc1ccc(NC(=O)CSc2nc(O)c(C)c(=O)n2-c2ccc(F)cc2)cc1
[1]
  IC50: 18.6 µM
  IC90: > 25 µM

## Cc1cccc(/C=C/C(=O)c2ccc([N+](=O)[O-])o2)c1
[1]
  IC50: 0.1 µM
  IC90: 0.17 µM

## CCOC(=O)C(C)Sc1ncnc2c1nnn2-c1ccc(F)cc1 (stereo not given)
[1]
  IC50: 0.85 µM and 3.12 µM
  IC90: 3.42 µM and 8.23 µM

## O=C(c1ccc(CNc2c(N3CCCC3)c(=O)c2=O)cc1)N1CCN(C2CCCCC2)CC1
[1]
  IC90: > 25 µM

## CCOC(=O)COn1c2c(c3c4no[n+]([O-])c4ccc31)CCCC2
[1]
  IC50: 1.96 µM
  IC90: 3.17 µM

## O=C(/C=C\c1cccs1)N1CCN(Cc2ccc3c(c2)OCO3)CC1
[1]
  IC50: 0.94 µM
  IC90: > 25 µM

## COC(=O)c1cc(=O)n(-c2ccc(F)cc2)c(=Nc2ccc(F)cc2)s1
[1]
  IC50: 0.36 µM
  IC90: 1.18 µM

## CCc1ccc(/C=C2/C(=O)N(C)C(=S)N2CC(=O)OC)s1
[1]
  IC50: 1.12 µM
  IC90: 4.63 µM

## CC(C)CCNC(=O)CSc1nc2ccccc2c(=O)[nH]1
[1]
  IC50: 1.19 µM
  IC90: 2.35 µM

## CCC(Sc1ncnc2c1nnn2-c1ccc(F)cc1)C(=O)OC (stereo not given)
[1]
  IC50: 9.59 µM
  IC90: > 25 µM

## CC1CCCN(C(=O)C2CCC(CNc3c(N4CCCCC4)c(=O)c3=O)CC2)C1 (stereo not given)
[1]
  IC50: 11.5 µM
  IC90: > 25 µM

## COC(=O)C(C)Oc1ccc(Cc2ncc(C(F)(F)F)cc2Cl)cc1 (stereo not given)
[1]
  IC50: 2.66 µM
  IC90: 4.35 µM

## Cc1ccc(NC(=O)COC(=O)CCc2c[nH]c3ccccc23)cc1[N+](=O)[O-]
[1]
  IC50: 1.16 µM
  IC90: 4.23 µM

## O=C1C(Br)=Cc2cccc3cccc1c23
[1]
  IC50: 0.16 µM
  IC90: 0.79 µM

## c1ccc(/N=C2\N=C(Nc3ccccn3)c3ccccc32)nc1
[1]
  IC50: 0.16 µM
  IC90: 0.25 µM

## COC(=O)CCc1nc2c(C#N)c(-c3ccc(Cl)cc3)ccn2n1
[1]
  IC50: 2.58 µM
  IC90: 3.66 µM

## CC(=O)c1ccc(NC(=O)c2ccc(CNc3c(N4CCOCC4)c(=O)c3=O)cc2)cc1
[1]
  IC50: 12.4 µM
  IC90: > 25 µM

## COc1ccc(N2CCN(C(=O)c3ccc(CNc4c(N5CCOCC5)c(=O)c4=O)cc3)CC2)cc1
[1]
  IC50: 2.16 µM
  IC90: > 25 µM

## CCOC1OC(=O)C(Cl)=C1Nc1ccccc1C (stereo not given)
[1]
  IC50: 2.31 µM
  IC90: > 25 µM

## O=C(NCC1COc2ccccc2O1)C1CCC(CNc2c(N3CCCCC3)c(=O)c2=O)CC1 (stereo not given)
[1]
  IC90: > 25 µM

## CC(C)OC(=O)CSc1ncnc2c1cnn2-c1ccccc1
[1]
  IC50: 10.5 µM
  IC90: > 25 µM

## CC[N+](C)(CC)CCCCOc1ccc2c(c1)C(=O)c1cc(OCCCC[N+](C)(CC)CC)ccc1-2
[1]
  IC50: 1.42 µM
  IC90: 1.98 µM

## COC(=O)C(C)Oc1ccc(-c2nccc(-c3ccccn3)n2)cc1 (stereo not given)
[1]
  IC50: 2.11 µM
  IC90: 4.13 µM

## O=C(c1ccc(CNc2c(N3CCOCC3)c(=O)c2=O)cc1)N1CC=C(c2ccccc2)CC1
[1]
  IC50: 0.66 µM
  IC90: 0.83 µM

## CCc1c(C)nc(SCC(=O)Nc2ccc3c(c2)OCCO3)[nH]c1=O
[1]
  IC50: 14.1 µM
  IC90: > 25 µM

## Cc1ccc2c(c1)c(C1=c3ccccc3=NC1=O)c(O)n2C
[1]
  IC50: 0.84 µM
  IC90: 3.12 µM

## CCc1c(C)nc(SCC(=O)NC2CCCC2)[nH]c1=O
[1]
  IC50: 1.5 µM
  IC90: 2.85 µM

## CCOC(=O)CSc1ncnc2c1cnn2-c1ccc(Cl)cc1
[1]
  IC50: 4.32 µM
  IC90: > 25 µM

## O=C(NCCc1ccc(Cl)cc1)c1ccc(CNc2c(N3CCOCC3)c(=O)c2=O)cc1
[1]
  IC50: 4.71 µM
  IC90: 6.88 µM

## O=C(NCC(c1cccs1)N1CCOCC1)c1cc([N+](=O)[O-])cc([N+](=O)[O-])c1 (stereo not given)
[1]
  IC50: 0.21 µM
  IC90: 0.58 µM

## CCOC(=O)CNC(=O)[C@H](Cc1ccccc1)NC(=O)OCc1ccccc1 (Cbz-Phe-Gly-OEt)
[1]
  IC50: 1.06 µM
  IC90: 2.96 µM

## Cc1nc(SCC(=O)NC2CCCC2)[nH]c(=O)c1C
[1]
  IC50: 7.97 µM
  IC90: 13.4 µM

## Cc1cccc(-c2oc3ccc(-c4ccc5c(c4)OCO5)cc3c2C#Cc2cncn2C)c1
[1]
  IC50: 1.78 µM
  IC90: 2.69 µM
